The subject of series [1] is MEG01 cells. Briefly: Dynamic mass redistribution (DMR) in MEG01 cells. The note with it: for DMR response to ATP after ADR inhibitors: ATP 50 μM; for DMR response to ATP after ADR inhibitors / DMR response of isoproterenol (ISO) after ADR inhibitors / PAGln-induced DMR response after ADR inhibitors: inhibitor 10 μM; for DMR response of isoproterenol (ISO) after ADR inhibitors: ISO 10 μM; for PAGln-induced DMR response after ADR inhibitors: PAGln 100 μM, 30 min. The series is classed as cell-based, human. As for the experimental part: (§1) Before proceeding for the experiments, cells were subjected to overnight incubation in reduced serum media opti-MEM. […] The cells were briefly centrifuged at room temperature at low speed (100 g for 10-15 sec) to allow settling down the cells at the bottom of the plate. After that, cells were allowed to temperature equilibrate for 1 h at room temperature prior to run DMR measurement. Firstly, basal DMR responses were graphed for around 15 min to obtain a baseline read that defines the zero level and also ensures the signal is stable. […] DMR response signal was recorded for 60-90 minutes post compound of interest addition.

In series [2] the test system is MEG01 cells. The series can be described thus: cAMP assay in MEG01 cells. The series is classed as cell-based, human. The note with it: for PAGln induced intracellular cAMP production after ADR inhibitors: PAGln 100 μM, 5 min exposure, inhibitor 10 μM. The protocol: Real-time (RT) PCR in MEG01 cells: Total RNA was isolated from MEG01 cells following TRIZOL RNA isolation protocol post 40 h of siRNA transfection. […] Real time (RT) PCR was carried out following TaqMan Gene Expression Assays protocol using RT primers and probes of ADRA2A (assay Id Hs01099503_s1), ADRA2B (assay Id Hs00265081 s1) and ADRB2 (assay Id Hs00240532_s1) from ThermoFisher Scientific. cAMP assay in MEG01, Platelets and HEK293 cells: Intracellular cAMP levels were measured using CatchPoint Cyclic-AMP Fluorescent Assay Kit from molecular devices (Cat. R8089). Briefly, MEG01 cells were washed with 1×HBSS buffer with HEPES (20 mM; pH 7.4) and re-suspended in stimulation buffer (1×HBSS, HEPES (20 mM); pH 7.4, IBMX (0.5 mM), Rolipram (0.1 mM) and BSA (0.1%)). The cells were further seeded into 96 well cell culture plates with a density of ˜100 k cells per well in 100 μL stimulation buffer. Similarly, human washed platelets re-suspended very gently in stimulation buffer and seeded into a 96-well cell culture plates with ˜4-6 million platelets per well in 100 μL stimulation buffer. Both the MEG01 cells and platelets were kept thereafter at 37° C. incubator for 10 min before addition of the inhibitors or test compounds. Following incubation with stimulation buffer, 10 μL (10× concentration) of modulators/inhibitors (when necessary) were added and kept for 15 min at 37° C. […] The test compounds were made in buffer T (1×HBSS, HEPES (20 mM); pH 7.4, IBMX (0.5 mM) and Rolipram (0.1 mM)). The reaction was stopped by adding 50 μL of lysis buffer (provided in the kit CatchPoint Cyclic-AMP Fluorescent Assay Kit Cat. R8089-Molecular Devices), further added with IBMX (0.5 mM) and Rolipram (0.1 mM)) and agitated for 10 min in a plate shaker to facilitate cell lysis. Lysed cells are immediately proceeded to cAMP assay. For the quantification of cAMP, the lysed sample (40 μL), buffer control and cAMP calibrators were added in appropriate wells of a 96-well clear bottom, black wall cAMP assay plates (provided in the kit). Thereafter, reconstituted rabbit anti-cAMP antibody (40 μL) was added to all the wells and mix for 5 min on a plate shaker to ensure mixing. In the next step, reconstituted HRP-cAMP conjugate (40 μL) was added to every well, mixed properly and kept at room temperature for 2 h. The plate contents were aspirated thereafter and washed with wash buffer (300 μL (provided in the kit)) 4 times. Spotlight red substrate (provided in the kit) was added to each well minimizing the time between starting and finishing in dark. The plate was covered with aluminum foil and left at room temperature for at least 10 min before reading fluorescence intensity in a FlexStation 3 Multi-Mode Microplate Reader-Molecular devices. […] For cAMP assay in adherent cell lines, parental HEK293, and β2-HEK293 (stable) cells were seeded into 96-well cell culture microplates with approximately 50 k cells per well in DMEM (100 μL) media supplemented with FBS (10%), penicillin (100 U/mL) and streptomycin (100 μg/mL) in a humidified atmosphere at 37° C. in 5% CO2. Cells were grown for 24 h before proceeding for cAMP experiment following similar method as described for MEG01 cells. Intracellular Ca^2+ measurement: Intracellular Ca^2+ in MEG01, HEL92.1.7, parental HEK293, β2-HEK293 (stable) cells, empty vector (EV) transfected HEK293 cells, ADRA2A transfected HEK293 cells and in α2B-HEK293 stable cells was measured using FLIPR Calcium 5 Assay Kit-Molecular devices (Cat. R8186). […]
Background: Cyclic AMP is a second messenger, typically raised through Gs and lowered through Gi signalling.

Another series concerns washed human platelets. The series can be described thus: cAMP assay in washed human platelets. The series is classed as cell-based. As for the experimental part: Real-time (RT) PCR in MEG01 cells: Total RNA was isolated from MEG01 cells following TRIZOL RNA isolation protocol post 40 h of siRNA transfection. […] Real time (RT) PCR was carried out following TaqMan Gene Expression Assays protocol using RT primers and probes of ADRA2A (assay Id Hs01099503_s1), ADRA2B (assay Id Hs00265081 s1) and ADRB2 (assay Id Hs00240532_s1) from ThermoFisher Scientific. cAMP assay in MEG01, Platelets and HEK293 cells: Intracellular cAMP levels were measured using CatchPoint Cyclic-AMP Fluorescent Assay Kit from molecular devices (Cat. R8089). Briefly, MEG01 cells were washed with 1×HBSS buffer with HEPES (20 mM; pH 7.4) and re-suspended in stimulation buffer (1×HBSS, HEPES (20 mM); pH 7.4, IBMX (0.5 mM), Rolipram (0.1 mM) and BSA (0.1%)). The cells were further seeded into 96 well cell culture plates with a density of ˜100 k cells per well in 100 μL stimulation buffer. Similarly, human washed platelets re-suspended very gently in stimulation buffer and seeded into a 96-well cell culture plates with ˜4-6 million platelets per well in 100 μL stimulation buffer. Both the MEG01 cells and platelets were kept thereafter at 37° C. incubator for 10 min before addition of the inhibitors or test compounds. Following incubation with stimulation buffer, 10 μL (10× concentration) of modulators/inhibitors (when necessary) were added and kept for 15 min at 37° C. […] For the quantification of cAMP, the lysed sample (40 μL), buffer control and cAMP calibrators were added in appropriate wells of a 96-well clear bottom, black wall cAMP assay plates (provided in the kit). […] The plate was covered with aluminum foil and left at room temperature for at least 10 min before reading fluorescence intensity in a FlexStation 3 Multi-Mode Microplate Reader-Molecular devices. […] Intracellular Ca^2+ measurement: Intracellular Ca^2+ in MEG01, HEL92.1.7, parental HEK293, β2-HEK293 (stable) cells, empty vector (EV) transfected HEK293 cells, ADRA2A transfected HEK293 cells and in α2B-HEK293 stable cells was measured using FLIPR Calcium 5 Assay Kit-Molecular devices (Cat. R8186). […]

In the next series the test system is HEL92.1.7 cells. The series can be described thus: Dynamic mass redistribution (DMR) in HEL92.1.7 cells. In kind it is cell-based, human. As for the experimental part:
as §1

Series [3] has as its system human platelet rich plasma (PRP). Briefly: Platelet aggregometry in platelet rich plasma. The series is classed as cell-based. The note with it: inhibitor 10 μM; PAGln 100 μM; ADP 2 μM. The protocol:
ADP (up to 4 μM), TRAP6 (up to 10 μM) and collagen (up to 1.0 μg/mL) were used as indicated to initiate aggregation with constant stirring (600 rpm).

Series [4] is described as follows: Metabolism of phenylacetic acid after i.p. injection. In kind it is in vivo. The note with it: intraperitoneal (i.p.) injection in mice.

The structures appear in SMILES notation. Numbered stars: 1 amine (or outer) side, 2 acyl side, 3 side chain; on linkers, the order of the positions; unused ones are H or OH. Bridge positions count the residues as written; N and C are the ends. Square brackets hold non-standard residues; d marks the D form. Peptide text beside a SMILES is read from it. X1 = CC(=O)NC(C(=O)OC(C(C)C)C(N[*:1])C(=O)[*:2])C(O)C(C)C; PhLac = O=C(O)[CH](O)Cc1ccccc1; NMeT = CN[CH](C(=O)O)[CH](C)O; NMeA = CN[CH](C)C(=O)O; NMeDha = C=C(NC)C(=O)O

For the compound `Cc1ccc(OCC(O)C(C)NC(C)C)c2c1CCC2` (centres unmarked) [ICI118,551], in the series with MEG01 cells [1], the “DMR response to ATP after ADR inhibitors” value is on record as “remained unchanged”, the “DMR response of isoproterenol (ISO) after ADR inhibitors” value is recorded as “diminished” and the “PAGln-induced DMR response after ADR inhibitors” value was “substantially reduced”. Moreover, in the series on MEG01 cells [2], the “intracellular cAMP production after ISO treatment, with ADR inhibitors” value was “reduced” and the “PAGln induced intracellular cAMP production after ADR inhibitors” value is “inhibited PAGln (5 min exposure) induced intracellular cAMP production”. Also, the “intracellular cAMP production after ISO treatment, with ADR inhibitors” value in the series on washed human platelets is given as “reduced”. The “PAGln induced intracellular cAMP production after ADR inhibitors” value in the series on washed human platelets (PAGln 5 min exposure) is reported as “inhibited PAGln (5 min exposure) induced intracellular cAMP production”.

In the case of `NC[C@H](O)c1ccc(O)c(O)c1` [norepinephrine], in the series on MEG01 cells [1] (increasing concentrations), the “DMR dose response curves” value is “saturable and specific DMR dose response curves”. Further, in the series with HEL92.1.7 cells (increasing concentrations), the DMR dose-response signal result is recorded as “like norepinephrine”.

Turning to `C=C1C(=O)NC(C)C(=O)N(C)C(C)C(=O)NC(C(OC(=O)C(NC(C)=O)C(O)C(C)C)C(C)C)C(=O)N(C)C(C(C)OC)C(=O)OC(C)C(NC(C)=O)C(=O)OC(Cc2ccccc2)C(=O)N1C` (centres unmarked) [YM-254890] (Ac-T[PhLac][NMeDha]A[NMeA][X1][NMeT](Me); ester 1-C; configuration not given here), the “PAGln induced DMR response after G-protein modulators” value in the series on HEL92.1.7 cells was “significant reduction in PAGln induced DMR response”.

For the compound `CC(C)NCC(O)COc1cccc2ccccc12` (centres unmarked) [propranolol], the “PAGln induced hyperresponsiveness of platelet aggregation” value in series [3] is on record as “attenuated the PAGln induced hyperresponsiveness”. Besides, in the series with MEG01 cells [1], the “DMR response to ATP after ADR inhibitors” value is “remained unchanged”, the “DMR response of isoproterenol (ISO) after ADR inhibitors” value is recorded as “diminished” and the “PAGln-induced DMR response after ADR inhibitors” value is given as “substantially reduced”. Also, in the series on MEG01 cells [2], the “intracellular cAMP production after ISO treatment, with ADR inhibitors” value is “reduced” and the “PAGln induced intracellular cAMP production after ADR inhibitors” value is “inhibited PAGln (5 min exposure) induced intracellular cAMP production”.

As for `O=C(O)Cc1ccccc1` [phenylacetic acid], the metabolic fate result in series [4] is reported as “predominantly metabolized into PAGly”.

For the origin of these results see US20230091848A1, “DISEASE DETECTION AND TREATMENT BASED ON PHENYLACETYL GLUTAMINE LEVELS” (The Cleveland Clinic Foundation, priority 2020, published 2023).
